System: HeLa cells
Test: Measurement of the cell cycle inhibition in HeLa cells
Assay type: cell-based
Settings: HeLa B cells, 20 h incubation with compound; FACS ratio G0/G1 to G2/M vs DMSO; concentration at which 50% of cells are in cell cycle arrest
Outline: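 HeLa B cells exposed 20 h to compounds (1×10^−9 to 1×10^−6 M final), then lysed in RNase/propidium iodide buffer and analysed by FACS. G0/G1 to G2/M ratio compared with DMSO controls; IC50 is concentration giving 50% of cells in cell cycle arrest.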

| Compound | IC50 [µM] |
| --- | --- |
| COc1cc(F)c(-c2c(Cl)nc(C(N)=O)nc2N[C@@H](C)C(F)(F)F)c(F)c1 [Example 189] | 0.03 |
| COc1cc(F)c(-c2c(Cl)nc(C(N)=NO)nc2N2CCC(C)CC2)c(F)c1 [Example 190] | 0.026 |
| CC(C)[C@H](C)Nc1nc(C(N)=NO)nc(Cl)c1-c1ccc([N+](=O)[O-])cc1Cl [Example 192] | 0.03 |
| CC1CCN(c2nc(C(N)=NO)nc(Cl)c2-c2c(F)cccc2F)CC1 [Example 194] | 0.021 |
| CON=C(N)c1nc(Cl)c(-c2c(F)cccc2F)c(N[C@@H](C)C(C)C)n1 [Example 196] | 0.038 |
| CON=C(N)c1nc(Cl)c(-c2c(F)cc(OC)cc2F)c(N2CCC(C)CC2)n1 [Example 197] | 0.042 |
| COc1cc(F)c(-c2c(Cl)nc(C(N)=O)nc2N[C@@H](C)C(C)C)c(F)c1 [Example 199] | 0.033 |
| COc1ccc(-c2c(Cl)nc(C(C)=NO)nc2N[C@@H](C)C(C)C)c(Cl)c1 [Example 200] | 0.047 |
| CC(C)[C@H](C)Nc1nc(C(N)=NO)nc(Cl)c1-c1cc(F)ccc1Cl [Example 201] | 0.03 |
| CON=C(N)c1nc(Cl)c(-c2cc(F)ccc2Cl)c(N[C@@H](C)C(C)C)n1 [Example 202] | 0.038 |
| COc1cc(F)c(-c2c(Cl)nc(C(N)=S)nc2N[C@@H](C)C(F)(F)F)c(F)c1 [Example 203] | 0.047 |
| CC(C)=NOc1nc(Cl)c(-c2c(F)cc(F)cc2F)c(N[C@@H](C)C(F)(F)F)n1 [Example 204] | 0.023 |
| CC1CCCN1c1nc(C(N)=NO)nc(Cl)c1-c1ccc(F)cc1Cl (stereo not drawn) [Example 208] | 0.056 |
| O=C1CCCN1c1nc(Cl)c(-c2c(F)cc(F)cc2F)c(NCC(F)(F)F)n1 [Example 210] | 0.039 |
| CON=C(N)c1nc(Cl)c(-c2ccc(F)cc2Cl)c(N[C@@H](C)C(F)(F)F)n1 [Example 211] | 0.024 |
| Fc1cc(F)c(-c2c(Cl)nc(-n3ccnn3)nc2NCC(F)(F)F)c(F)c1 [Example 212] | 0.053 |
| CON=C(N)c1nc(Cl)c(-c2c(F)cccc2F)c(N[C@@H](C)C(F)(F)F)n1 [Example 213] | 0.051 |
| CON=C(N)c1nc(Cl)c(-c2ccc(OC)cc2Cl)c(N[C@@H](C)C(F)(F)F)n1 [Example 216] | 0.027 |
| COc1ccc(-c2c(Cl)nc(C(N)=O)nc2N[C@@H](C)C(F)(F)F)c(Cl)c1 [Example 217] | 0.023 |
| CON=C(N)c1nc(Cl)c(-c2ccc(F)cc2Cl)c(N[C@@H](C)C(C)C)n1 [Example 218] | 0.029 |
| CON=C(N)c1nc(Cl)c(-c2ccc([N+](=O)[O-])cc2Cl)c(N[C@@H](C)C(C)C)n1 [Example 219] | 0.029 |
| C[C@H](Nc1nc(C(N)=NO)nc(Cl)c1-c1cc(F)ccc1Cl)C(F)(F)F [Example 220] | 0.036 |
| CON=C(N)c1nc(Cl)c(-c2cc(F)ccc2Cl)c(N[C@@H](C)C(F)(F)F)n1 [Example 221] | 0.03 |

Now those with a lower IC50, led by results:

| IC50 [µM] | Compound |
| --- | --- |
| 0.012 | COc1cc(F)c(-c2c(Cl)nc(C(N)=NO)nc2N[C@@H](C)C(C)C)c(F)c1 [Example 191] |
| 0.009 | CC(C)[C@H](C)Nc1nc(C(N)=NO)nc(Cl)c1-c1ccc(F)cc1Cl [Example 193] |
| 0.02 | CC(C)[C@H](C)Nc1nc(C(N)=NO)nc(Cl)c1-c1c(F)cccc1F [Example 195] |
| 0.015 | CON=C(N)c1nc(Cl)c(-c2c(F)cc(OC)cc2F)c(N[C@@H](C)C(C)C)n1 [Example 198] |
| 0.0083 | C[C@H](Nc1nc(-n2ccnn2)nc(Cl)c1-c1c(F)cc(F)cc1F)C(F)(F)F [Example 205] |
| 0.02 | C=CCN(C)c1nc(-n2ccnn2)nc(Cl)c1-c1c(F)cc(F)cc1F [Example 206] |
| 0.015 | C[C@H](Nc1nc(-n2cccn2)nc(Br)c1-c1c(F)cc(F)cc1F)C(F)(F)F [Example 207] |
| 0.018 | CC(=NO)c1nc(Cl)c(-c2c(F)cc(F)cc2F)c(N[C@@H](C)C(F)(F)F)n1 [Example 209] |
| 0.018 | CON=C(N)c1nc(Cl)c(-c2c(F)cccc2Cl)c(N[C@@H](C)C(F)(F)F)n1 [Example 214] |
| 0.014 | COc1ccc(-c2c(Cl)nc(C(N)=NO)nc2N[C@@H](C)C(F)(F)F)c(Cl)c1 [Example 215] |
